# System: colitis induced by trinitrobenzene sulfonic acid (TNBS)
# Assay: in vivo test: TNBS-induced colitis in rats, intracolonic treatment
# Conditions: for Colon weight: 10 cm distal colon; for Colon weight / Macroscopic score / Necrosis areas (Mucosal Damage Area, MDA): day 4; for Body weight variation / Final body weight: days 1-3, day 4; for Macroscopic score / Necrosis areas (Mucosal Damage Area, MDA): distal colon
# Experimental: 70 Wister male rats were kept fasted for 20 hours before the induction of colitis. In the morning of the experiment (day 0), the rats were injected with a 40% solution of ethanol containing 30 mg of trinitrobenzene sulfonic acid (TNBS) by means of a single intracolonic injection. On days 1, 2 and 3 after the induction of colitis, Dalteparin sodium suspended in 0.25 mL of a 1% sodium cholate in saline (0.3 mg/rat, 0.6 mg/rat and 0.9 mg/rat), or 0.25 mL of vehicle (1% sodium cholate in saline) were instilled intracolonically. An additional group constituted by 4 untreated rats was also included. On day 4 from the induction of colitis, animals were euthanized and autopsy was performed. The colon have been isolated and 10 cm of the distal portion have been resected and weighted. […] The results, summarized in the table below, have been compared with those obtained from the control animals.
# [1] = 0.6 mg/rat/die intracolonic, listed as dalteparin sodium
substance,measurement,setting,value
Dalteparin sodium,Mortality,0.3 mg/rat/die intracolonic,0%
same,Colon weight,0.3 mg/rat/die intracolonic,1.72 ± 0.30 g
same,Colon weight,"0.3 mg/rat/die intracolonic, listed as dalteparin sodium",1.72 ± 0.30 g
same,Body weight variation,0.3 mg/rat/die intracolonic,−21%
same,Final body weight,0.3 mg/rat/die intracolonic,166 ± 14 g
same,Macroscopic score,0.3 mg/rat/die intracolonic,5.6 ± 0.52
same,"Necrosis areas (Mucosal Damage Area, MDA)",0.3 mg/rat/die intracolonic,463.4 ± 89.6 mm^2
same,Mortality,0.6 mg/rat/die intracolonic,10%
same,Colon weight,0.6 mg/rat/die intracolonic,1.80 ± 0.38 g
same,Body weight variation,0.6 mg/rat/die intracolonic,−15%
same,Final body weight,0.6 mg/rat/die intracolonic,180 ± 17 g
same,Macroscopic score,0.6 mg/rat/die intracolonic,4.9 ± 1.05
same,"Necrosis areas (Mucosal Damage Area, MDA)",0.6 mg/rat/die intracolonic,309.9 ± 155.8 mm^2
same,Macroscopic score,[1],4.9±1.05
same,"Necrosis areas (Mucosal Damage Area, MDA)",[1],309.9±155.8 mm^2
same,Mortality,0.9 mg/rat/die intracolonic,10%
same,Colon weight,0.9 mg/rat/die intracolonic,1.76 ± 0.22 g
same,Colon weight,"0.9 mg/rat/die intracolonic, listed as dalteparin sodium",1.76 ± 0.22 g
same,Body weight variation,0.9 mg/rat/die intracolonic,−17%
same,Final body weight,0.9 mg/rat/die intracolonic,176 ± 15 g
same,Macroscopic score,0.9 mg/rat/die intracolonic,5.8 ± 0.44
same,"Necrosis areas (Mucosal Damage Area, MDA)",0.9 mg/rat/die intracolonic,492.5 ± 104.6 mm^2
same,overall effect of treatment on the considered parameters,"0.3, 0.6 and 0.9 mg/rat intracolonic, versus vehicle control group",effective in reducing all the considered parameters

# — patent publication US20140127292A1, “PHARMACEUTICAL COMPOSITIONS FOR THE ORAL ADMINISTRATION OF HEPARIN OR DERIVATIVES THEREOF” (Cosmo Technologies Limited, priority 2001, published 2014)
